# Source: ChEMBL document CHEMBL1156428 (J Biol Chem, 2007)
# Active and inactive are the calls of the source. No cut-off for these calls is given here.
# Assays:
# [1] = target: T1, Human immunodeficiency virus type 1 reverse transcriptase (Human immunodeficiency virus 1, UniProt Q72547, Y181C); test: Inhibition of HIV1 RT Y181C mutant mediated DNA-dependent DNA polymerization using DNA PPT primed substrate by scintillation proximity assay
# [2] = system: Human immunodeficiency virus 1; test: Inhibition of HIV1 RT D443N mutant mediated DNA-dependent DNA polymerization
# [3] = Inhibition of HIV1 RT D443N mutant mediated DNA-dependent DNA polymerization using chimeric substrate with RNA PPT primer extended at 3' end with upto 3 deoxyribonucleotides; set-up: species or system Human immunodeficiency virus 1
# [4] = target: T2, Human immunodeficiency virus type 1 reverse transcriptase (Human immunodeficiency virus 1, UniProt Q72547); test: Inhibition of HIV1 RT mediated DNA-dependent DNA polymerization using chimeric substrate with RNA PPT primer
# [5] = target: T2, Human immunodeficiency virus type 1 reverse transcriptase; test: Inhibition of HIV1 RT mediated DNA-dependent DNA synthesis initiation using DNA PPT-primed substrate
# [6] = target: T2, Human immunodeficiency virus type 1 reverse transcriptase; test: Inhibition of HIV1 RT mediated DNA-dependent DNA polymerization
# [7] = target: T2, Human immunodeficiency virus type 1 reverse transcriptase; test: Inhibition of HIV1 RT mediated DNA-dependent plus-strand DNA polymerization after 5 mins by gel-based assay
# [8] = Inhibition of HIV1 RT D443N mutant mediated DNA-dependent DNA polymerization using chimeric substrate with RNA PPT primer extended at 3' end with upto 9 deoxyribonucleotides; set-up: species or system Human immunodeficiency virus 1
# [9] = target: T2, Human immunodeficiency virus type 1 reverse transcriptase; test: Inhibition of HIV1 RT mediated DNA-dependent DNA synthesis initiation using RNA/DNAM duplex primed substrate by scintillation proximity assay
# [10] = Inhibition of HIV1 RT D443N mutant mediated DNA-dependent DNA polymerization using chimeric substrate with RNA PPT primer extended at 3' end with upto 6 deoxyribonucleotides; set-up: species or system Human immunodeficiency virus 1
# [11] = target: T2, Human immunodeficiency virus type 1 reverse transcriptase; test: Inhibition of HIV1 RT mediated RNA-dependent minus-strand DNA synthesis after 5 mins by gel-based assay
# [12] = target: T2, Human immunodeficiency virus type 1 reverse transcriptase; test: Inhibition of HIV1 RT mediated DNA-dependent DNA polymerization using chimeric substrate with RNA PPT primer extended at 3' end with upto 9 deoxyribonucleotides
# [13] = Inhibition of HIV1 RT D443N mutant mediated DNA-dependent DNA polymerization using chimeric substrate with RNA PPT primer extended at 3' end with upto 2 deoxyribonucleotides; set-up: species or system Human immunodeficiency virus 1
# [14] = target: T1, Human immunodeficiency virus type 1 reverse transcriptase; test: Inhibition of HIV1 RT Y181C mutant mediated DNA-dependent DNA polymerization using RNA PPT primed substrate by scintillation proximity assay
# [15] = Inhibition of HIV1 RT D443N mutant mediated DNA-dependent DNA polymerization using chimeric substrate with RNA PPT primer extended at 3' end with upto one deoxyribonucleotide; set-up: species or system Human immunodeficiency virus 1
# [16] = target: T2, Human immunodeficiency virus type 1 reverse transcriptase; test: Inhibition of HIV1 RT mediated DNA-dependent DNA synthesis initiation using RNA PPT primed substrate by scintillation proximity assay
# [17] = target: T1, Human immunodeficiency virus type 1 reverse transcriptase; test: Inhibition of HIV1 RT Y181C mutant mediated DNA-dependent DNA polymerization using RNA/DNAM duplex primed substrate by scintillation proximity assay
# [18] = target: T3, Human immunodeficiency virus type 1 reverse transcriptase (Human immunodeficiency virus 1, UniProt Q72547, K103N); test: Inhibition of HIV1 RT K103N mutant mediated DNA-dependent DNA polymerization using RNA/DNAM duplex primed substrate by scintillation proximity assay
# [19] = target: T3, Human immunodeficiency virus type 1 reverse transcriptase; test: Inhibition of HIV1 RT K103N mutant mediated DNA-dependent DNA polymerization using RNA PPT primed substrate by scintillation proximity assay
# [20] = target: T2, Human immunodeficiency virus type 1 reverse transcriptase; test: Inhibition of HIV1 RT mediated DNA-dependent DNA polymerization using chimeric substrate with RNA PPT primer extended at 3' end with upto 3 deoxyribonucleotides
# [21] = Inhibition of HIV1 RT D443N mutant mediated DNA-dependent DNA polymerization using chimeric substrate with RNA PPT primer extended at 3' end with upto 12 deoxyribonucleotides; set-up: species or system Human immunodeficiency virus 1
# [22] = target: T2, Human immunodeficiency virus type 1 reverse transcriptase; test: Inhibition of HIV1 RT mediated DNA-dependent DNA polymerization using chimeric substrate with RNA PPT primer extended at 3' end with upto 2 deoxyribonucleotides
# [23] = target: T3, Human immunodeficiency virus type 1 reverse transcriptase; test: Inhibition of HIV1 RT K103N mutant mediated DNA-dependent DNA polymerization using DNA PPT primed substrate by scintillation proximity assay
# [24] = Inhibition of HIV1 RT D443N mutant mediated DNA-dependent DNA polymerization using chimeric substrate with RNA PPT primer; set-up: species or system Human immunodeficiency virus 1
# [25] = target: T2, Human immunodeficiency virus type 1 reverse transcriptase; test: Inhibition of HIV1 RT mediated DNA-dependent DNA polymerization using chimeric substrate with RNA PPT primer extended at 3' end with upto one deoxyribonucleotide
# [26] = target: T2, Human immunodeficiency virus type 1 reverse transcriptase; test: Inhibition of HIV1 RT mediated DNA-dependent DNA polymerization using chimeric substrate with RNA PPT primer extended at 3' end with upto 12 deoxyribonucleotides
compound,measurement,setting,value
CCc1cc(NCc2nc3c(Cl)ccc(Cl)c3o2)c(O)nc1C [L-697661],IC50,[1],> 5000 nM
same,Activity,[2],inactive
same,IC50,[3],240 nM
same,IC50,[4],280 nM
same,IC50,[5],> 10000 nM
same,IC50,[6],290 nM
same,IC50,[7],35 nM
same,IC50,[8],130 nM
same,IC50,[9],230 nM
same,IC50,[10],270 nM
same,IC50,[11],1400 nM
same,IC50,[12],320 nM
same,IC50,[13],230 nM
same,IC50,[14],> 5000 nM
same,IC50,[15],240 nM
same,IC50,[16],430 nM
same,IC50,[17],> 5000 nM
same,IC50,[18],> 5000 nM
same,IC50,[19],> 5000 nM
same,IC50,[20],270 nM
same,IC50,[21],150 nM
same,IC50,[22],280 nM
same,IC50,[23],> 5000 nM
same,IC50,[24],440 nM
same,IC50,[25],220 nM
same,IC50,[26],130 nM
Cc1cn([C@H]2C[C@H](N=[N+]=[N-])[C@@H](CO[P@](=O)(O)O[P@](=O)(O)OP(=O)(O)O)O2)c(=O)[nH]c1=O [ZIDOVUDINE TRIPHOSPHATE],IC50,[9],360 nM
same,IC50,[16],320 nM
